Values quoted from earlier work, collected in US20040180034A1, “Anthelmintic resinates and a method for their preparation” (priority 2003, published 2004).

- cats experiencing weakness, salivation, or nausea (after injection): approximately one cat in ten
- animals experiencing nausea (oral form): at least one out of twenty
SMILES: O=C(C1CCCCC1)N1CC(=O)N2CCc3ccccc3C2C1 (centres unmarked) [Praziquantel, 4H-Pyrazino[2,1-a]isoquinolin-4-one, 2-(cyclohexylcarbonyl)-1,2,3,6,7,11b-hexahydro-(9CI)]
